# Measured values taken from ChEMBL document CHEMBL1201862, “PubChem BioAssay data set” (2004).
# “And” between values parts separate entries of the source, which are not always exact repeats. Equal values may be shown once.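 Where inhibition never reached the appropriate level, the endpoint shown equals the highest concentration tested. Otherwise, values were interpolated linearly from a five-concentration, 48-hour dose response in 96-well plates. Here, GI50 denotes the concentration required for 50% inhibition of growth.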 The source made the active and inactive calls. Cut-off read from the data, not from the text of the source: active = GI50 up to about 1.1 µM and inactive = higher.
# Columns and labels:
# Experiment in all cases: growth of human tumour cells (NCI), 48 h
# BT-549 = test system: BT-549
# CAKI-1 = test system: CAKI-1
# CCRF-CEM = test system: CCRF-CEM
# COLO 205 = test system: COLO 205
# DU-145 = test system: DU-145
# EKVX = test system: EKVX
# HCC 2998 = test system: HCC 2998
# HCT-15 = test system: HCT-15
# HL-60 = test system: HL-60
# Hs-578T = test system: Hs-578T
# IGROV-1 = test system: IGROV-1
# K562 = test system: K562
# KM12 = test system: KM12
# LOX IMVI = test system: LOX IMVI
# MCF7 = test system: MCF7
# MDA-MB-435 = test system: MDA-MB-435
# MDA-N = test system: MDA-N
# MOLT-4 = test system: MOLT-4
# Malme-3M = test system: Malme-3M
# NCI-H226 = test system: NCI-H226
# OVCAR-3 = test system: OVCAR-3
# OVCAR-4 = test system: OVCAR-4
# OVCAR-5 = test system: OVCAR-5
# OVCAR-8 = test system: OVCAR-8
# PC-3 = test system: PC-3
# RXF 393 = test system: RXF 393
# SF-295 = test system: SF-295
# SK-MEL-28 = test system: SK-MEL-28
# SK-MEL-2 = test system: SK-MEL-2
# SK-OV-3 = test system: SK-OV-3
# SN12C = test system: SN12C
# SNB-19 = test system: SNB-19
# SR = test system: SR
# SW-620 = test system: SW-620
# TK-10 = test system: TK-10
# U-251 = test system: U-251
# UACC-257 = test system: UACC-257
# UACC-62 = test system: UACC-62
# UO-31 = test system: UO-31
# 786-0 = test system: 786-0
# A549 = test system: A549
# ACHN = test system: ACHN
# HCT-116 = test system: HCT-116
# HOP-62 = test system: HOP-62
# HOP-92 = test system: HOP-92
# HT-29 = test system: HT-29
# M14 = test system: M14
# MDA-MB-231 = test system: MDA-MB-231
# NCI-H23 = test system: NCI-H23
# NCI-H460 = test system: NCI-H460
# NCI/ADR-RES = test system: NCI/ADR-RES
# SF-539 = test system: SF-539
# SK-MEL-5 = test system: SK-MEL-5
# SNB-75 = test system: SNB-75
# T47D = test system: T47D
compound,measurement,setting,value
N#Cc1c2c(c(-c3cccs3)n(C3OC(CO)C(O)C(O)C3O)c1=S)CCc1ccccc1-2 (configuration not stated),GI50,BT-549,> 100 µM (inactive)
same,GI50,CAKI-1,6.65 µM (inactive) and 6.14 µM (inactive)
same,GI50,CCRF-CEM,> 57.8 µM (inactive) and 36.8 µM (inactive)
same,GI50,COLO 205,30 µM (inactive) and 40 µM (inactive)
same,GI50,DU-145,> 100 µM (inactive)
same,GI50,EKVX,> 24.9 µM (inactive)
same,GI50,HCC 2998,59.8 µM (inactive) and > 41.5 µM (inactive)
same,GI50,HCT-15,7.03 µM and 6.32 µM
same,GI50,HL-60,> 20.9 µM (inactive)
same,GI50,Hs-578T,8.97 µM (inactive) and 5.97 µM (inactive)
same,GI50,IGROV-1,97.9 µM (inactive) and > 86.3 µM (inactive)
same,GI50,K562,6.58 µM (inactive) and 4.93 µM (inactive)
same,GI50,KM12,> 45.6 µM (inactive) and 38.2 µM (inactive)
same,GI50,LOX IMVI,> 22.3 µM (inactive) and > 22.2 µM (inactive)
same,GI50,MCF7,5.42 µM (inactive) and 3.85 µM (inactive)
same,GI50,MDA-MB-435,3.36 µM (inactive) and 3.44 µM (inactive)
same,GI50,MDA-N,6.4 µM (inactive) and 4.23 µM (inactive)
same,GI50,MOLT-4,8.32 µM (inactive) and 14.3 µM (inactive)
same,GI50,Malme-3M,66.2 µM (inactive) and 35.6 µM (inactive)
same,GI50,NCI-H226,> 100 µM (inactive)
same,GI50,OVCAR-3,20.8 µM (inactive) and 22.5 µM (inactive)
same,GI50,OVCAR-4,29.8 µM (inactive) and > 39 µM (inactive)
same,GI50,OVCAR-5,> 100 µM (inactive)
same,GI50,OVCAR-8,97.5 µM (inactive) and > 87.7 µM (inactive)
same,GI50,PC-3,46.3 µM (inactive) and 28.4 µM (inactive)
same,GI50,RXF 393,24.3 µM (inactive) and 23 µM (inactive)
same,GI50,SF-295,27.6 µM (inactive) and 48.6 µM (inactive)
same,GI50,SK-MEL-28,> 100 µM (inactive)
same,GI50,SK-MEL-2,> 100 µM (inactive) and > 56.8 µM (inactive)
same,GI50,SK-OV-3,7.67 µM (inactive) and 7.45 µM (inactive)
same,GI50,SN12C,> 26.7 µM (inactive) and > 21.7 µM (inactive)
same,GI50,SNB-19,> 100 µM (inactive) and 98.2 µM (inactive)
same,GI50,SR,5.82 µM (inactive) and 4.76 µM (inactive)
same,GI50,SW-620,> 100 µM (inactive)
same,GI50,TK-10,> 29 µM (inactive) and > 20.8 µM (inactive)
same,GI50,U-251,37.2 µM (inactive) and 21.4 µM (inactive)
same,GI50,UACC-257,> 43.8 µM (inactive) and > 51.2 µM (inactive)
same,GI50,UACC-62,5.64 µM (inactive) and 7.8 µM (inactive)
same,GI50,UO-31,3.04 µM (inactive)
CCCNC(=S)N/C=C1/C(=O)C=C(C)OC1=O,GI50,786-0,> 100 µM (inactive)
same,GI50,A549,> 100 µM (inactive)
same,GI50,ACHN,> 100 µM (inactive)
same,GI50,BT-549,> 100 µM (inactive)
same,GI50,CAKI-1,> 100 µM (inactive)
same,GI50,COLO 205,> 100 µM (inactive)
same,GI50,DU-145,> 100 µM (inactive)
same,GI50,EKVX,> 100 µM (inactive)
same,GI50,HCC 2998,> 100 µM (inactive)
same,GI50,HCT-116,> 100 µM (inactive)
same,GI50,HCT-15,> 100 µM
same,GI50,HOP-62,> 100 µM (inactive)
same,GI50,HOP-92,> 100 µM (inactive)
same,GI50,HT-29,> 100 µM (inactive)
same,GI50,IGROV-1,> 100 µM (inactive)
same,GI50,KM12,> 100 µM (inactive)
same,GI50,LOX IMVI,> 100 µM (inactive)
same,GI50,M14,> 100 µM (inactive)
same,GI50,MCF7,> 100 µM (inactive)
same,GI50,MDA-MB-231,> 100 µM (inactive)
same,GI50,MDA-MB-435,> 100 µM (inactive)
same,GI50,MDA-N,> 100 µM (inactive)
same,GI50,MOLT-4,> 100 µM (inactive)
same,GI50,NCI-H226,> 100 µM (inactive)
same,GI50,NCI-H23,> 100 µM (inactive)
same,GI50,NCI-H460,> 100 µM (inactive)
same,GI50,NCI/ADR-RES,> 100 µM (inactive)
same,GI50,OVCAR-3,> 100 µM (inactive)
same,GI50,OVCAR-4,> 100 µM (inactive)
same,GI50,OVCAR-5,> 100 µM (inactive)
same,GI50,OVCAR-8,> 100 µM (inactive)
same,GI50,PC-3,> 100 µM (inactive)
same,GI50,SF-295,> 100 µM (inactive)
same,GI50,SF-539,> 100 µM (inactive)
same,GI50,SK-MEL-28,> 100 µM (inactive)
same,GI50,SK-MEL-2,> 100 µM (inactive)
same,GI50,SK-MEL-5,> 100 µM (inactive)
same,GI50,SK-OV-3,> 100 µM (inactive)
same,GI50,SN12C,> 100 µM (inactive)
same,GI50,SNB-19,> 100 µM (inactive)
same,GI50,SNB-75,> 100 µM (inactive)
same,GI50,SW-620,> 100 µM (inactive)
same,GI50,T47D,> 100 µM (inactive)
same,GI50,TK-10,26.7 µM (inactive)
same,GI50,U-251,> 100 µM (inactive)
same,GI50,UACC-257,> 100 µM (inactive)
same,GI50,UACC-62,> 100 µM (inactive)
same,GI50,UO-31,> 100 µM (inactive)
